Measurements published in patent publication US10739333B2, “Methods of BH3 profiling” (Dana-Farber Cancer Institute, Inc., priority 2013, dated 2020).

Experiments:
MDA-MB-231 = experiment: BH3 profiling in pre-made frozen versus freshly prepared plates (FIG. 5); format: cell-based; conditions: responsive cells MDA-MB-231
Text: Also included in the invention are kits for performing BH3 Profiling using whole cells. The kit consists of a multi-well plate containing staining components in a mitochondrial buffer and a tube of mitochondrial buffer for the suspension and dispensing of cells into the plate for analysis. Each well of the multi-well plate contains a mixture of JC-1 dye, oligomycin, 2-mercaptoethanol, digitonin, and a peptide or small molecule at twice their final concentration, Optionally the plate and suspension buffer tube can be frozen for later use along with the suspension buffer tube. To use, the plate and buffer tube are thawed and brought to room temperature. Cells are suspended in buffer, dispensed into the wells of the plate, and analyzed in a fluorescence plate reader using the JC-1 red fluorescence at 590 nm with excitation at 545 nm.

SuDHL4 cell line = experiment: miBH3 profile of the SuDHL4 cell line (FIG. 4); format: cell-based; conditions: FIG. 4A, matches other BH3 profiling methods in FIG. 4B
Experimental: BH3 profiling can be accomplished at the single cell level by immobilizing cells on a solid surface. Optionally the solid surface is polyamine or poly-lysine coated. Immobilized cells are permeabilized as described above. The cells are then contacted with BH3 peptides and/or test agents. After the cells have been treated for a predetermined period of time such as 45-90 minutes, the cells are fixed and further permeabilized by methods known in the art. For example the cells are fixed with formaldehyde and further permeabilized with methanol or Triton X-100 (t-Octylphenoxypolyethoxyethanol). Outer membrane permeabilization is determined by intracellular staining for molecules from the mitochondrial inter-membrane space and a mitochondrial marker. Examples of molecules that can be measured include cytochrome c, SMAC/Diablo, Omi, adenylate kinase-2 or apoptosis inducing factor (AIF). A mitochondrial marker includes MnSOD. Stained cells can be counterstained with nuclear stains such as DAPI. Optionally other intracellular and extracellular markers can be measured. […]
MicroBH3 (miBH3) is a BH3 profiling method where the measurement of the mitochondrial effect of […] peptides have on individual cells by microscopy. […] Fixed cells by this method can be readily stopped at the fixation step and can be analyzed weeks after acquisition as well as readily re-analyzed if needed.

BAD: BH3 domain peptide LWAAQRYGRELRRMSDEFEGSFKGL, SEQ ID NO 4
response to peptide treatment in frozen and freshly prepared plates (MDA-MB-231): comparable response
release of cytochrome c / loss of correlation between cytochrome c and MnSOD channels (SuDHL4 cell line): Release of cytochrome c and loss of correlation
